Reference: PMC7827406, “Structure–Activity Relationship (SAR) Study of Spautin-1 to Entail the Discovery of Novel NEK4 Inhibitors” (International Journal of Molecular Sciences, 2021)
Like-named read-outs stand apart in the source and are kept apart here.

What was measured:
Assay in all cases: biochemical
Set-up in all cases: Eurofins KinaseProfiler full panel at Km ATP, residual kinase activity (%) relative to DMSO
[1] = molecular target: T1, PI3 Kinase (p110a/p65a)(h) (Homo sapiens, UniProt P42336)
T1 construct: gene PIK3CA; with p65a
In short: (§1)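 Radiometric kinase activity assays were run with ATP at Km and compounds at 10 µM, and remaining activity (%) was reported. A separate competitive binding screen measured DNA-tagged kinase displaced from immobilized active-site ligands by qPCR, giving percent kinase still bound at 10 µM compound in DMSO.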

PI3KC2g(h) = molecular target: T2, PI3KC2g(h) (Homo sapiens, UniProt O75747)
T2 construct: gene PIK3C2G
T2 sequence (O75747 1-1486): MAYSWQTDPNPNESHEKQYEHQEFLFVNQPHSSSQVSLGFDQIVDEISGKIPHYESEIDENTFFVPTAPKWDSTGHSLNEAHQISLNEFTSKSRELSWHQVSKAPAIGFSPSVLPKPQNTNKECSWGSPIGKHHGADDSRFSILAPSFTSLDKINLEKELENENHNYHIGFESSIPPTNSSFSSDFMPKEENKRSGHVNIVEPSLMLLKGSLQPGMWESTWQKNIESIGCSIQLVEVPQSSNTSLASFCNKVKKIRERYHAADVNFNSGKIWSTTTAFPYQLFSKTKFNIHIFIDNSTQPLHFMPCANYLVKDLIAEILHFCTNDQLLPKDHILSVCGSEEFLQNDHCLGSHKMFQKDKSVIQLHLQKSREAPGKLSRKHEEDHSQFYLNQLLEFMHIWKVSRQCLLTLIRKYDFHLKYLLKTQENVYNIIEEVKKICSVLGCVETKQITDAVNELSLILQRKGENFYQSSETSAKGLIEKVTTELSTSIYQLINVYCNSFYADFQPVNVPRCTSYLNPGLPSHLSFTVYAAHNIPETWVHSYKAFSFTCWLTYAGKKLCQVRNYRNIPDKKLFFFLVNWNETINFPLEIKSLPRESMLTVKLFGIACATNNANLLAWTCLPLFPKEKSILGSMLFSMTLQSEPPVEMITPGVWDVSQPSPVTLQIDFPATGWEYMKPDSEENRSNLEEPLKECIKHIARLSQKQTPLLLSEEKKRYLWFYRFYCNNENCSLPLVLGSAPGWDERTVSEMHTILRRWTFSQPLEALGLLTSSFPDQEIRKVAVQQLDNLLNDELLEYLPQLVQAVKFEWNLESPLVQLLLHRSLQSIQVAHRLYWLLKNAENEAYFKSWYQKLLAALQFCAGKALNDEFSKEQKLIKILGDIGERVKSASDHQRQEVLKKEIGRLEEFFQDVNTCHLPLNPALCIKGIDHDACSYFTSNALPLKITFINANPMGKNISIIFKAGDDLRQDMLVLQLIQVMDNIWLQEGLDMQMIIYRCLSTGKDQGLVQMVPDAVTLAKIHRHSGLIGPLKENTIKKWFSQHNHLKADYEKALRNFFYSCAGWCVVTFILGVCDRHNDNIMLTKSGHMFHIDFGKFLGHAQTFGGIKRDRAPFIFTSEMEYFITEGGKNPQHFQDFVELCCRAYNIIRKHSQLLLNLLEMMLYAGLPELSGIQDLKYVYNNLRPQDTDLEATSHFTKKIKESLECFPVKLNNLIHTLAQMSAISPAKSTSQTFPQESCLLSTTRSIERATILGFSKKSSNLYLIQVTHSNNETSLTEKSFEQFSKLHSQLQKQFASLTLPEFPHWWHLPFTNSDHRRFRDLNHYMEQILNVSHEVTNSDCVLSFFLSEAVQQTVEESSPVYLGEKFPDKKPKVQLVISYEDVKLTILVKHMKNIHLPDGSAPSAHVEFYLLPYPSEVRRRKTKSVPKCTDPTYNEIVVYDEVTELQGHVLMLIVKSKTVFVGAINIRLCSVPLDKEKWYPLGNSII
In short: as §1

PIP4K2a(h) = molecular target: T3, PIP4K2a(h) (Homo sapiens, UniProt P48426)
T3 sequence (P48426 1-406): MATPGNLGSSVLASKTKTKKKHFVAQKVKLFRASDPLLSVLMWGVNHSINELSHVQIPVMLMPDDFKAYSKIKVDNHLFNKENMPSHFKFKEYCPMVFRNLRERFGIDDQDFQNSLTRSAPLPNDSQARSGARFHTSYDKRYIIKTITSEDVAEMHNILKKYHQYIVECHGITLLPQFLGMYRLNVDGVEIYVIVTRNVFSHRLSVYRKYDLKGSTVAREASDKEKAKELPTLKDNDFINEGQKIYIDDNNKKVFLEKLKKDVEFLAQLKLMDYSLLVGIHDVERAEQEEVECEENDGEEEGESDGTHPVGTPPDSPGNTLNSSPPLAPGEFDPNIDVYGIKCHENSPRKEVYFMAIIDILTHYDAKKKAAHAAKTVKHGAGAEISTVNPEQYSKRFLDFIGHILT
In short: as §1

[2] = read-out: Residual activity (%) 5at
[3] = read-out: Residual activity (%) 5as
[4] = read-out: Residual activity (%) 5ay
[5] = read-out: Residual activity (%) Spautin-1 5aa

T1 sequence (P42336 whole entry): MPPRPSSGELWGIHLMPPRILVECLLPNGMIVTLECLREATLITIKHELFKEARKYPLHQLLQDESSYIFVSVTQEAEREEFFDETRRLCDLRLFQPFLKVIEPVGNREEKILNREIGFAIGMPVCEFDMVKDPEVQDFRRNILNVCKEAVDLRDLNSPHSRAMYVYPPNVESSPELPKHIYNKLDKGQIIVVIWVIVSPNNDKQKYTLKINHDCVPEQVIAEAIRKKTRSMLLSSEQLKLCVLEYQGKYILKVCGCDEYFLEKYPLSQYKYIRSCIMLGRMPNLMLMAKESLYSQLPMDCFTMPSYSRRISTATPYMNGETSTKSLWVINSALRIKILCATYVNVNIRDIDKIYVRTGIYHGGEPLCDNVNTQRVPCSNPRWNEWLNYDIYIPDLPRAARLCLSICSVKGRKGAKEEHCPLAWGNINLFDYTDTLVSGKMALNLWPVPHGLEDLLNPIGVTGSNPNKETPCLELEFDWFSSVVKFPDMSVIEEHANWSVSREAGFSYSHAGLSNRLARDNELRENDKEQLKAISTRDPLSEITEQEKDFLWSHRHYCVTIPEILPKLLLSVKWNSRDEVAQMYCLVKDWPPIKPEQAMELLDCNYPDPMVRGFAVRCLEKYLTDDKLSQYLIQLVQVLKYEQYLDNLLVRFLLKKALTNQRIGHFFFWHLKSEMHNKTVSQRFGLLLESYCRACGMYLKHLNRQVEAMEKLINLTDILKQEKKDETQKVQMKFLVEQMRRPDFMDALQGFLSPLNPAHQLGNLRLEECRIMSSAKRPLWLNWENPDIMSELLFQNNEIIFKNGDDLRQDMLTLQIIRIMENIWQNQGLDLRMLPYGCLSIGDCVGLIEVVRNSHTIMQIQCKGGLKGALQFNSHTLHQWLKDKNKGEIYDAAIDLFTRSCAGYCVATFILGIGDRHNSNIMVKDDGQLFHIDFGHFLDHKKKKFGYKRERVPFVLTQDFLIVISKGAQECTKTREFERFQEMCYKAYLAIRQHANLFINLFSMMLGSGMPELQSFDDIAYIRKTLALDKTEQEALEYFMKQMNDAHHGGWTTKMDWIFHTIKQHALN
T1 sequence (P27986 whole entry partner): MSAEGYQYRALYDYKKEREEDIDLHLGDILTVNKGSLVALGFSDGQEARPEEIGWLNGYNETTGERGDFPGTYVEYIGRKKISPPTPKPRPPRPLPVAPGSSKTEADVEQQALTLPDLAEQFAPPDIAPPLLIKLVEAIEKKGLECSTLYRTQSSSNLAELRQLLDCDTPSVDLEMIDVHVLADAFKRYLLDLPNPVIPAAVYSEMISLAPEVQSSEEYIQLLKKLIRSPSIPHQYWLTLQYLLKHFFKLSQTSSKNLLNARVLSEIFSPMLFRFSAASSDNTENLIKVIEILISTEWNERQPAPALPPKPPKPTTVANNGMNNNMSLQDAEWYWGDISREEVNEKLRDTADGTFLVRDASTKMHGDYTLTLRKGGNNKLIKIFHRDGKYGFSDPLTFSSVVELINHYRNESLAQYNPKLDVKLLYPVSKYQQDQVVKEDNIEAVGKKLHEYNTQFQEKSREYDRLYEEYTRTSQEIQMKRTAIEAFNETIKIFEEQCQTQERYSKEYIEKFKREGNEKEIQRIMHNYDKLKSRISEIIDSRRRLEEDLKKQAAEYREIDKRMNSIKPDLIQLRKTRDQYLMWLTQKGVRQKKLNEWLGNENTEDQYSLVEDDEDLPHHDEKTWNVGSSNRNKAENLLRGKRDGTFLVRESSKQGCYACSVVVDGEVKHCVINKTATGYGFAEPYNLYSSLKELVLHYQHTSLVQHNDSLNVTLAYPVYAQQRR

`Fc1ccc2ncnc(NCCc3ccc(Cl)cc3)c2c1` [5at, N-[2-(4-Chlorophenyl)Ethyl]-6-Fluoro-4-Quinazolinamine] was tested, and the remaining activity at 10 µM [1, 2] was 94%, the remaining activity at 10 µM (PI3KC2g(h); [2]) was 34% and the remaining activity at 10 µM (PIP4K2a(h); [2]) was 92%.

Compound `Fc1ccc(CCNc2ncnc3ccc(F)cc23)cc1` [5as, 6-Fluoro-N-[2-(4-Fluorophenyl)Ethyl]-4-Quinazolinamine] has a remaining activity at 10 µM [1, 3] of 95%, a remaining activity at 10 µM (PI3KC2g(h); [3]) of 57% and a remaining activity at 10 µM (PIP4K2a(h); [3]) of 96%.

Work on `COc1ccc2ncnc(Nc3cccc(F)c3)c2c1` [5ay, N-(3-Fluorophenyl)-6-Methoxy-4-Quinazolinamine] yielded a remaining activity at 10 µM [1, 4] of 91%, a remaining activity at 10 µM (PI3KC2g(h); [4]) of 40% and a remaining activity at 10 µM (PIP4K2a(h); [4]) of 102%.

`Fc1ccc(CNc2ncnc3ccc(F)cc23)cc1` [5aa, 6-Fluoro-N-(4-fluorobenzyl)-4-Quinazolinamine] was tested, and the remaining activity at 10 µM [1, 5] was 98%, the remaining activity at 10 µM (PI3KC2g(h); [5]) was 70% and the remaining activity at 10 µM (PIP4K2a(h); [5]) was 93%.
